The text below walks through data of patent publication US12084479B2, “Modified antimicrobial peptide derived from an arginine-rich domain” (priority 2016, dated 2024).

Read-outs that look alike come from different tables or passages of the source. Where a SMILES comes first, the peptide text is derived from it. Where no end group is shown, it is not given here. [ ]: non-standard residue; d: D form.

One series relates to S. aureus ATCC 19636. Put plainly: Mouse sepsis model infected with S. aureus, in vivo protection efficacy. Set-up: species or system ICR mice. To be noted: for survival (mice protected from death): S. aureus 4×10^6 CFU/mouse i.p., monitored 7 days; for in vivo protection efficacy, compared between peptides: mouse sepsis model, FIG. 8 (5 mg/kg) and FIG. 9 (different doses). The procedure: To investigate the in vivo protection efficacy of the 37-mer L- and D-HBcARD peptides, we performed a mouse sepsis model infected with S. aureus. ICR mice were first i.p. inoculated with S. aureus (4×10^6 CFU/mouse), followed by one single i.p. injection of L-HBcARD, D-HBcARD and PBS at two hours post-inoculation, respectively. All mice (n=10) administered with PBS died at day 1. See FIG. 4, A. At 7 days post-inoculation, 40% of mice treated with L-HBcARD (10 mg/kg) survived. See FIG. 4, A. In contrast, D-HBcARD peptide was able to achieve a much higher survival rate (60% for 5 mg/kg dose, and 100% for 10 mg/kg dose).
We compared the in vivo protection efficacy of HBcARD 150-177C peptides (28-mer) containing either D-form or L-form arginines. ICR mice (n=10/group) were ip. inoculated with S. aureus ATCC19636 (4×10^6/mouse), followed by treatment with modified peptides at two hours post-inoculation. All PBS control mice died on day 1, and only 20% of the mice treated with control peptide (150-177Q) survived. Administration of L-150-177C peptide at the dose of 5 and 10 mg/kg protected 30% and 70% mice from death, respectively. When treated with 5 mg/kg of D-150-177C, all mice (100%) survived.
Three-week old male ICR mice (19 to 21 g) were purchased from BioLASCO (Taiwan). To test the in vivo protection efficacy of the HBcARD peptides, all mice were inoculated intraperitoneally with S. aureus ATCC 19636 (4×10^6 CFU/mouse). HBc147-183 (L- or D-HBcARD) or the PBS control was administered intraperitoneally at 2 hours after bacterial inoculation, respectively. Each group contained 10 mice. Mortality was monitored daily for 7 days following the bacterial inoculation.

A further series has as its system S. aureus. The series is classed as cell-based, Staphylococcus aureus. The procedure:
(§1) The antimicrobial activities of HBcARD peptides were tested using a number of bacterial strains, including Pseudomonas aeruginosa Migula strains (ATCC 27853, ampicillin-resistant and ATCC 9027, ampicillin-resistant), Klebsiella pneumoniae strain (ATCC 13884), Shigella dysenteriae Xen27 (Caliper Co.), Escherichia coli strain (ATCC 25922), Staphylococcus aureus subsp. strains (ATCC 25923, methicillin-resistantATCC 29213, methicillin-resistant and ATCC 19636, methicillin-resistant) and Acinetobacter baumannii strains (ATCC 17978, ATCC 17978 CR, ATCC19606, ATCC 19606 CR, TCGH 45530 and TCGH 46709). Clinical isolates TCGH 45530 and TCGH 46709 were obtained from Tzu-Chi Buddhist General Hospital (TCGH) in Taiwan, and were identified using the Vitek system (Biomerieux Vitek, Inc., Hazelwood, MO, USA). See Chang et al. (2012), J Microbiol Immunol Infect 45:37-42 doi:10.1016/j.jmii.2011.09.019.
(§2) L- and D-HBcARD peptides were purchased from Yao-Hong Biotechnology Inc. (Taipei, Taiwan). Antimicrobial activity was determined as described. See, Chen et al., 2013. Briefly, bacteria were grown in MH broth (Difco) to mid-logarithmic phase at 37° C., and were diluted to 10^6 CFU (colony formation unit)/ml in phosphate buffer (10 mM sodium phosphate and 50 mM sodium chloride, pH 7.2). Peptides were serially diluted in the same buffer. Fifty microliters (μl) of bacteria were mixed with fifty μl of peptides at varying concentrations, followed by incubation at 37° C. for 3 hours without shaking. At the end of incubation, bacteria were placed on Mueller-Hinton broth agar plates, and allowed to grow at 37° C. overnight for measurement of minimal bactericidal concentration (MBC).
(§3) All peptides were tested in triplicate.

Another series concerns A. baumannii. Format: cell-based, Acinetobacter baumannii. The procedure: as §1, §2, §3
The test system of another series is P. aeruginosa. The series is classed as cell-based, Pseudomonas aeruginosa. Here is the method:
as §1, §2, §3

The test system of another series is K. pneumoniae. The series is classed as cell-based, Klebsiella pneumoniae. Here is the method: as §1, §2, §3
Another series concerns E. coli. Format: cell-based, Escherichia coli. The note with it: for Minimal bactericidal concentration: E. coli ATCC 25922. The procedure:
as §1, §2, §3

The nature of series [1]: In vivo toxicity (survival, serum ALT). On the set-up: species or system ICR mice. To be noted: for serum ALT level compared with polymyxin B: day 1. The procedure:
FIG. 7 is a set of graphs showing lower in vivo toxicity of HBcARD peptide D-150-177C in comparison with polymyxin B. At day 0, male ICR mice (5 mice/group) were ip. injected with different doses of D-150-177C peptide (20-80 mg/kg) and polymyxin B (50 mg/kg), respectively. (A) The survival rates of all groups were monitored for 7 days. (B) Serum samples collected from mice treated with D-150-177C and polymyxin B were determined for alanine aminotransferase activity (ALT) at day 1. The dash line represents the mean of ALT value (45 U/L) of ICR mice (Charles River Laboratories).
Using the sepsis mouse model, we examined the survival rates of ICR mice intraperitoneally (i.p.) injected with the 28-mer D-150-177C peptide (20-80 mg/kg body weight) and polymyxin B (a colistin-related compound) (50 mg/kg body weight). […] See FIG. 7, A. When the doses were increased to 60 and 80 mg/kg, survival rates of mice were decreased to 80% and 40%, respectively. See, FIG. 7, A. Liver injury can be detected by the serum ALT level.

The mark [2] stands for this setting: 5 mg/kg single i.p. injection 2 hours post-inoculation.

Broadly, the MBC is the smallest concentration meeting the test's criterion for killing. A higher MBC goes with less potent killing.

RRRGRSPRRRTPSPRRRRSQSPRRRRSQ [150-177Q]: the survival with S. aureus ATCC 19636 (control peptide, dose not given, treatment 2 hours post-inoculation) is 20%. Besides, the MBC result against S. aureus (S. aureus ATCC19636, listed as HBcARD 150-177Q) is on record as “no detectable bactericidal activity”.

For the compound “RKPRGLEPRRRKVKTTVVYGRRRSKSRGRRSSPSQR [Heron HBcARD]”, the results for the Minimal bactericidal concentration with A. baumannii, with P. aeruginosa and in the series with K. pneumoniae were 69.3 µg/mL, over 69.3 µg/mL and over 69.3 µg/mL, respectively.

On to “RKPRGLEPRRRKVKTTVVYGRRRSKSRERRAPTPQR [Duck HBcARD]”, for which the figures for the Minimal bactericidal concentration in the series on A. baumannii, in the series on P. aeruginosa and in the series on K. pneumoniae were 70.6 µg/mL, over 70.6 µg/mL and over 70.6 µg/mL, respectively.

For “TVIRRRGGARASRSPRRRTPSPRRRRSQSPRRRRSQSPSANC [Woodchuck HBcARD]”, the Minimal bactericidal concentration in the series with E. coli is 19.6 µg/mL; in the series with A. baumannii (A. baumannii ATCC 17978) it was 4.9 µg/mL; in the series on S. aureus (S. aureus ATCC19636), 19.6 µg/mL; with P. aeruginosa (P. aeruginosa ATCC 9027) it was 9.8 µg/mL; in the series with K. pneumoniae (K. pneumoniae ATCC 13884) it was 9.8 µg/mL.

Consider RRRTPSPRRRRSQSPRRRRC [157-176C], for which, in the series on S. aureus (S. aureus ATCC19636), the MBC entry is reported as “none of these peptides showed detectable activity”.

As to RRRGRSPRRRTPSPRRRRC [150-168C], in the series on S. aureus (S. aureus ATCC19636), the MBC entry was “none of these peptides showed detectable activity”.

Consider “rRrGRSPrRrTPSPrRrRSQSPrRrRSC ([dR]R[dR]GRSP[dR]R[dR]TPSP[dR]R[dR]RSQSP[dR]R[dR]RSC) [DL-150-177C]”, for which the “survival (mice protected from death)” value with S. aureus ATCC 19636 (setting [2]) was “protected all S. aureus-infected mice from death”. In the series with S. aureus ATCC 19636, the “in vivo protection efficacy, compared between peptides” value was “very similar protection efficacy to all-D-arginine substituted peptide D-150-177C”.

RRRGRSPRRRTPSPRRRRSQSPRRRRSC [150-177C]: the figures for the “survival (mice protected from death)” value in the series with S. aureus ATCC 19636 (setting [2]) and in the series with S. aureus ATCC 19636 (10 mg/kg single i.p. injection 2 hours post-inoculation) were 30% and 70%, respectively. For the same compound, the minimum bactericidal concentration (MBC) is 2 µM in the series on E. coli; 2 µM in the series on S. aureus; “rescued the bactericidal activity” in the series with S. aureus (S. aureus ATCC19636, listed as HBcARD 150-177C); 2 µM in the series with P. aeruginosa.

In the case of `C[C@@H](O)[C@H](NC(=O)[C@@H](CCCNC(=N)N)NC(=O)[C@@H](CCCNC(=N)N)NC(=O)[C@@H](CCCNC(=N)N)NC(=O)[C@@H]1CCCN1C(=O)[C@H](CO)NC(=O)[C@@H](CCCNC(=N)N)NC(=O)CNC(=O)[C@@H](CCCNC(=N)N)NC(=O)[C@@H](CCCNC(=N)N)NC(=O)[C@H](N)CCCNC(=N)N)C(=O)N1CCC[C@H]1C(=O)N[C@@H](CO)C(=O)N1CCC[C@H]1C(=O)N[C@H](CCCNC(=N)N)C(=O)N[C@H](CCCNC(=N)N)C(=O)N[C@H](CCCNC(=N)N)C(=O)N[C@H](CCCNC(=N)N)C(=O)N[C@@H](CO)C(=O)N[C@@H](CCC(N)=O)C(=O)N[C@@H](CO)C(=O)N1CCC[C@H]1C(=O)N[C@H](CCCNC(=N)N)C(=O)N[C@H](CCCNC(=N)N)C(=O)N[C@H](CCCNC(=N)N)C(=O)N[C@H](CCCNC(=N)N)C(=O)N[C@@H](CO)C(=O)N[C@@H](CS)C(=O)O` [D-150-177C, rrrGrSPrrrTPSPrrrrSQSPrrrrSC] (H-[dR][dR][dR]G[dR]SP[dR][dR][dR]TPSP[dR][dR][dR][dR]SQSP[dR][dR][dR][dR]SC-OH; N-terminus and C-terminus assumed), the survival rate is 80% in series [1] (60 mg/kg i.p., monitored 7 days) and 40% in series [1] (80 mg/kg i.p., monitored 7 days). The “serum ALT level compared with polymyxin B” value in series [1] (60 mg/kg, p<0.01) is recorded as “significantly higher”; in series [1] (20 to 40 mg/kg, p value insignificant) it was “higher ALT level than polymyxin B”. Moreover, the acute toxicity result in series [1] (20 and 40 mg/kg i.p., monitored 7 days) is on record as “no acute toxicity”.

For polymyxin B [reference compound], in series [1] (50 mg/kg body weight i.p.), the “survival outcome after i.p. injection” value is “died at day one”.

Turning to “TIVRRRGGSRATRSPRRRTPSPRRRRSQSPRRRRSQSPASSNC [Bat HBcARD]”, the Minimal bactericidal concentration with E. coli came to 20 µg/mL; in the series with A. baumannii (A. baumannii ATCC 17978), 2.5 µg/mL; in the series on S. aureus (S. aureus ATCC19636) it was 20 µg/mL; with P. aeruginosa (P. aeruginosa ATCC 9027), 10 µg/mL; in the series on K. pneumoniae (K. pneumoniae ATCC 13884) it was 5 µg/mL.

As for “RrRGRSPRrRTPSPRrRrSQSPRrRrSC (R[dR]RGRSPR[dR]RTPSPR[dR]R[dR]SQSPR[dR]R[dR]SC) [LD-150-177C]”, the “survival (mice protected from death)” value with S. aureus ATCC 19636 (setting [2]) is recorded as 80%. Besides, in the series with S. aureus ATCC 19636, the “in vivo protection efficacy, compared between peptides” value is listed as “less than DL-150-177C”.

Turning to RRRRSQSPRRRRSC [164-177C], the MBC result in the series on S. aureus (S. aureus ATCC19636) was “none of these peptides showed detectable activity”.

For the compound “rRrGRPrRrPPrRrRQPrRrRC ([dR]R[dR]GRP[dR]R[dR]PP[dR]R[dR]RQP[dR]R[dR]RC) [DL-dST-150-177C]”, the “in vivo protection efficacy, compared between peptides” value in the series with S. aureus ATCC 19636 was “remarkably improved protection efficacy compared to the 28-mers DL-150-177C and L-150-177C”.
